One test deals with pro-MMP-9 (Homo sapiens, UniProt P14780). The test can be described thus: anti-activation (splicing) assay: conversion of pro-MMP-9 by stromilysin, HPLC. The class given is biochemical. The following applies: pro-MMP-9 with stromilysin, micromolar 19-mer. The procedure:
The assay measured how much proenzyme was converted into mature matrix metalloproteinase. Proenzyme pro-MMP-9 (100 μg) was mixed with 0.5 μg of stromilysin in PBS. The reaction was incubated at 35° C. Aliquots were removed from the reaction over an 80-minute time course. […] The zero (injection) time point was a single peak that eluted from the column in approximately 750 seconds. This peak reduced in size as a function of time, and two new peaks appeared. The first peak eluted at approximately 800 seconds, and represents the mature form of MMP-9. The second peak eluted at approximately 1100 seconds, and corresponds to the N-terminal pro-domain fragment. Peak areas were determined by integrating over the elution profile, and the percent area changes were plotted.
The first peak, eluting at approximately 700 seconds, is pro-MMP-9. As the splicing reaction proceeds, this peak decreases in intensity (as marked with the downwards arrow), and two new peaks appear. The first new peak, eluting at approximately 800 seconds, is mature and active MMP-9. The second new peak, eluting at approximately 1050 seconds, is the prodomain. As the splicing reaction proceeds, the intensity of these two peaks increases (as marked with the upwards arrows). When the reaction is complete, there is no detectable pro-MMP-9 remaining.

The subject of another test is neutrophils. Briefly: neutrophil migration assay, transwell plate. The test is classed as cell-based, human. The following applies: for Percent Neutrophil Migration exp. 1: 0.4% HSA; for Percent Neutrophil Migration exp. 2: 0.04% HSA. The procedure: Peptides were synthesized and purified by the Microchemical Facility at Emory University or by SigmaGenesis. All peptides were analyzed by mass spectrometry after HPLC to assess purity. Approximately 0.5–2.0 milligrams of peptide were used to make fresh stock solutions (5 mg/mL in HBSS/HSA) for each migration assay. The peptide stock solutions were used to make more dilute solutions (1 mg/mL, 100 μg/mL, 10 μg/mL, 1 μg/mL, 100 ng/mL, and 10 ng/mL) in HBSS/HSA for the assays.
Neutrophils were isolated from human blood (collected in Vacutainer™ tubes containing EDTA) by layering the blood/EDTA mixture (about 20 mL) on top of two layers of Histopaque™ 1119 (bottom layer, 18 mL) and 1077 (top layer, 7 mL) in 50 mL Falcon tubes. The tubes were centrifuged at 1800 rpm for 30 minutes (no brake). Four layers appeared in the tubes after the spin (from top to bottom layers): plasma, 1077, 1119, and red blood cells. The buffy coat between the plasma and 1077 layers contained lymphocytes, monocytes, and some platelets. The plasma layer, the buffy coat, and most of the 1077 layer was removed and discarded. The 1119 layer that contained the neutrophils was removed and was placed into a clean 50 mL tube. Dulbecco's Phosphate Buffered Saline (DPBS) was added to bring the volume to 50 mL. The cells were centrifuged for 15 minutes at 2100 rpm. The cells were resuspended in 10 mL of DPBS, transferred to 15 mL tubes, and centrifuged again for 10 minutes at 2000 rpm. This process was repeated to wash the cells a second time. After the supernatant was removed, the red blood cells were lysed by adding 6 mL of cold sterile water to each 15 mL of supernatant. Cells were mixed in the water for only 30 seconds. Six mL of cold 2% sterile saline was then added. Cells were centrifuged again for 10 minutes at 2000 rpm. The red supernatant (containing hemoglobin from red blood cells) was removed. This process of red blood cell lysis was repeated two more times to remove all of the red blood cells. After most of the red blood cells were removed, neutrophils were resuspended in 10 mL of HBSS/HSA for counting with trypan blue.
A neutrophil migration assay was performed in duplicate using a 24-well transwell plate (3 μm pore size for membrane). Transwell membranes were pre-moistened with 20–40 μL of HBSS/HSA (0.04–0.4%). Chemotactic solutions (500 μL) were added to the bottom of each well. […] Transwells were then placed into the chemotactic solutions. The plate was placed into the incubator (37° C., 5% CO2) for one hour. Cells that migrated through the membrane were counted using trypan blue.
In the neutrophil migration experiments, neutrophils that were isolated were approximately 95% viable. […]

A further test addresses T1, MMP-9 (Homo sapiens, UniProt P14780).
T1 construct: Active MMP-9 enzyme was purchased from Calbiochem; purchased Calbiochem
The test can be described thus: isothermal titration calorimetry with MMP-9. The test is classed as binding. The following applies: ITC, 20 mM NaCl. The procedure:
Isothermal titration calorimetry (ITC) was performed with a VP-ITC instrument from MicroCal, Inc. Titrations were carried out by injecting 5 μL of an inhibitor peptide solution (at concentration ranges from 0.5 mM to 2.0 mM) into the 1.4 mL stirred reaction cell. MMP-9 ranged in concentration from 50 to 80 μM in the cell. Both the inhibitor and the enzyme were in 20 mM sodium cacodylate (pH 5.5–7.0), 40 mM NaCl, or 20 mM Tris-HCl (pH 7.0–7.5), 40 mM NaCl. Titrations were conducted between 20° C. and 40° C. Typical experimental conditions for the titrations were a 10 second injection period followed by a 240 second delay between injections for a total of 40 injections. Blank titrations of inhibitor peptide into buffer were performed in order to correct for heats of dilution and mixing.
The independent set of multiple binding sites is the most common model for binding experiment evaluations. The analytical solution for the total heat is determined by (Freire et al., 1990):
[formula] where Q is the total heat, V is the cell volume, ΔH is the enthalpy, M is the macromolecule concentration (the binding partner in the cell), n is the binding stoichiometry, L is the ligand concentration (the binding partner in the syringe), and K is the association constant. Data were fit to this model using Origin version 5 (MicroCal, Inc.). Surface Plasmon Resonance
The peptide was dissolved in 20 mM cacodylate (pH 6.8), 20 mM NaCl at a final concentration of 1 mM. MMP-9 was dialyzed into the same buffer at a final concentration of 20 μM. A series of standard injections were performed as described above.
On the technique in general: In ITC the heat of successive injections is recorded.

Where [1] appears, read: MMP-9, 20 mM cacodylate (pH 6.8).

Entries after “also recorded” stand apart in the source; their conditions may differ.

T1 sequence (P14780 107-707 limits assumed): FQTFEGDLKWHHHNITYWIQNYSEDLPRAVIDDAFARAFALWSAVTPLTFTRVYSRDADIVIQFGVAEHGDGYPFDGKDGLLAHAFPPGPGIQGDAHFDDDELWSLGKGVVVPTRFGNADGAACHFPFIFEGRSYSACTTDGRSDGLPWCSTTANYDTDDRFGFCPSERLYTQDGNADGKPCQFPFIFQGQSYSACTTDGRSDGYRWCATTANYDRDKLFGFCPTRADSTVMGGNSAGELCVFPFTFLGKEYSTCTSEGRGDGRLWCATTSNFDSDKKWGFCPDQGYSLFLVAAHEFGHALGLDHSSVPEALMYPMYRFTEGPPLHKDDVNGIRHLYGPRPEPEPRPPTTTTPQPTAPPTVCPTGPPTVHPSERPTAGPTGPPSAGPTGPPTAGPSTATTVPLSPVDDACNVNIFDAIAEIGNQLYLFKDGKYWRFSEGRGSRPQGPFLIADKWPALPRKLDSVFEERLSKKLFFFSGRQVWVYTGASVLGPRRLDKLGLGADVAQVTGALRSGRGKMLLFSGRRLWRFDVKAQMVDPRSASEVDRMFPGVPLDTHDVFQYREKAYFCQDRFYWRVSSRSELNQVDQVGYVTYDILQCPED
Chain of pro-MMP-9 (P14780 20-707): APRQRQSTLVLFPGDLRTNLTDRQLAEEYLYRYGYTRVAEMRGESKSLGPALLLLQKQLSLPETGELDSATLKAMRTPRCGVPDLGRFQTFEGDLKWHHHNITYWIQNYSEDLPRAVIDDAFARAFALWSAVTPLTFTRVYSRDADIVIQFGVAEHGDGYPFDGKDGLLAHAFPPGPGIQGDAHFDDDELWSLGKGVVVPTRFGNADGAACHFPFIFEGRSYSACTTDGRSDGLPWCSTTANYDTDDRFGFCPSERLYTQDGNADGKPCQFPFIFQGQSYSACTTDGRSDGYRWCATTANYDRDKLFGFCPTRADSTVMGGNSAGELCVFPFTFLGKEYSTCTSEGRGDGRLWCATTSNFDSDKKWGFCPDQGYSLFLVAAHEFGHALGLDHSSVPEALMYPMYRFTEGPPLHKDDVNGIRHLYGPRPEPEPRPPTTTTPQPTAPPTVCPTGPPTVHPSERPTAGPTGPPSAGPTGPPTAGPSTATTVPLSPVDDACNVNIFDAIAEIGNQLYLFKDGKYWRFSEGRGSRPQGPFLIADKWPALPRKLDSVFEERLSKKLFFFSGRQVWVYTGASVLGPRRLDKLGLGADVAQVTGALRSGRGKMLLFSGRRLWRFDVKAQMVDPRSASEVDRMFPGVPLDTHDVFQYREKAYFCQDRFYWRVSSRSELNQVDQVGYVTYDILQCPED

Turning to `CC(C)[C@H](NC(=O)[C@H](CC(=O)O)NC(=O)[C@@H]1CCCN1C(=O)[C@H](CC(N)=O)NC(=O)CNC(=O)[C@H](CS)NC(=O)[C@H](CCCNC(=N)N)NC(=O)[C@@H]1CCCN1)C(=O)N[C@@H](C)C(=O)N[C@@H](CC(N)=O)C(=O)N[C@@H](Cc1ccc(O)cc1)C(=O)N[C@@H](CC(N)=O)C(=O)N[C@@H](Cc1ccccc1)C(=O)N[C@@H](Cc1ccccc1)C(=O)N1CCC[C@H]1C(=O)N[C@@H](CCCNC(=N)N)C(=O)N[C@@H](CCCCN)C(=O)N1CCC[C@H]1C(=O)N[C@@H](CCCCN)C(=O)O` [Peptide 19-mer], at pro-MMP-9, the “inhibition of conversion of pro-MMP-9 into prodomain and active enzyme (splicing)” value was “prevents the activation; also recorded: inhibited in a dose dependent manner”. Moreover, the “Percent Neutrophil Migration exp. 1” value in the test with neutrophils (1 μg/mL) amounted to 32%; with neutrophils (10 μg/mL), 22%; in the test on neutrophils (100 μg/mL) it was 29%; with neutrophils (1 mg/mL), 23%. Also, the “Percent Neutrophil Migration exp. 2” value in the test on neutrophils (100 μg/mL) is listed as 0%; in the test on neutrophils (1 mg/mL), 4%. The “effect on neutrophil migration” value with neutrophils (1 mg/mL to 1 μg/mL) is “did not have an effect on neutrophil migration”. This compound displayed a Stoichiometry at MMP-9 (MMP-9 20 μM, peptide 1 mM, 20 mM cacodylate (pH 6.8)) of 0.975 ± 0.02. In addition, the ΔH at MMP-9 (setting [1]) is -26.1 ± 1.45 kcal/mol. The compound also showed a ΔS at MMP-9 (setting [1]) of −11.6 ± 2.2 cal mol^−1 K^−1.
